Data taken from patent US6797726B1, “N-alkoxyalkyl-N,N-dialkylamine derivatives or salts thereof, and remedies for nerve degeneration diseases containing the same” (Toyama Chemical Co., Ltd., priority 1999, dated 2004).
Where a name gives a salt, the structure may show the parent alone.

What was measured:
[1] = test system: cultured nerve cell death induced by Aβ; assay: Activity of inhibiting the Aβ-induced nerve cell death (MTT assay); type: cell-based, Wistar rat; settings: 0.1 μM; Aβ (25-35) 20 μmol/L; cultured rat embryo cerebral cortex nerve cells
Source text: The effect of inhibiting the death of cultured nerve cell induced by Aβ was examined by a modification of the method described in Brain Research, Vol. 639, Page 240 (1994).
(§1) Cerebral cortex excised from the brain of an embryo of Wistar rat (embryonal age 17-19 days) was cut into small pieces and then treated with trypsin to dissociate the nerve cells. The cells were spread onto a 48-well tissue-culture plate at a rate of 1×10^5 cells per well, and cultured under a condition of 5% carbon dioxide, 37° C., in a Dulbecco modified Eagle medium to which B27 additives (product of GIBCO BRL) and 3.6 mg/mL glucose were added.
When the cultured had been continued for 12-13 days, a solution of potassium chloride was added so as to give a final concentration of 25 mmol/L, immediately after which a test agent was added. Twenty four hours after addition of the test agent, Aβ (25-35 peptide residues) dissolved in distilled water was added so as to give a final concentration of 20 μmol/L. Twenty four hours after addition of Aβ, the medium was changed to a medium prepared by adding test compound to Dulbecco modified Eagle medium to which B27 and 3.6 mg/mL glucose were added.
The inhibitory activity of test agent on the cultured nerve cell death was expressed by using the activity of inhibiting the decrease of MTT reducing ability as an index. That is, 48 hours after changing the medium, MTT assay developed by Mossmann [Journal of Immunological Methods, Vol. 65, Page 55 (1983)] was carried out, and the inhibition rate (%) of the agent on the decrease of MTT assay value induced by Aβ was calculated.
Inhibition rate=[(Aβ+MTT assay value of agent−added group)−(MTT assay value of Aβ−added group)]÷[MTT assay value of no addition group−MTT assay value of Aβ−added group]×100

ddY male mice = assay: Anti-hypoxic activity; type: in vivo; settings: 100 mg/kg orally, 30 minutes after administration, gas 4% oxygen / 96% nitrogen at 5 L/minute; for response vs control in vivo at 100 mg/kg: Mus musculus, po, 0.5 h, read-out: Anti-hypoxic activity: (survival time of mouse in administered group)÷(survival time of mouse in control group)×100
Experimental: A test compound (100 mg/kg) dissolved in distilled water is orally administered to ddY male mice of 5-6 weeks age (6-10 heads per group). Thirty minutes after the administration, each mouse was introduced into a glass vessel, and a gas mixture consisting of 4% of oxygen and 96% of nitrogen was passed through the glass vessel at a rate of 5 L/minute. The period of the time from the beginning of sending the gas to the death of the animal was measured.
To the control group, only distilled water was orally given. Anti-hypoxic activity of test compound was calculated according to the following equation:
(Survival time of mouse in administered group)÷(Survival time of mouse in control group)×100(%)

sciatic nerve = assay: Nerve-regeneration promoting activity (crushed sciatic nerve); type: in vivo; settings: 10 mg/kg intra-abdominally, 1 hour after crushing then twice per day for 5 days, SD rats, measured six days after operation
Experimental: The test was carried out according to the description of Experimental Neurology, Vol. 140, Page 198 (1996). SD rats (male, 6 weeks age, body weight 160-200 g) were anesthetized with Pentobarbital. The left sciatic nerve was exposed from the upper femoral muscular texture and peeled off from the surrounding texture, while taking care so as to give no injury to the muscular fiber. […] The crushed zone was marked with a thread at the end of neurilemma, and the operated portion was sutured. One hour after the crushing, a test compound dissolved in physiological salt solution was administered intra-abdominally at a dosage of 10 mg/kg. Thereafter, the same administration as above was repeated twice per day far 5 days. Six days after the operation, the operated portion was again opened under an anesthesia using Pentobarbital to expose the sciatic nerve, and a forceps was made to contact to the nerve from a position about 25 mm distant from the crushed part. The forceps was slowly moved toward the crushed part until a reflex reaction appeared. […] To the control group, only a saline was given. The sciatic nerve regeneration rate of the test compound was calculated according to the following equation: (Regeneration distance in administration group)÷(Regeneration distance in control group)×100(%)

[2] = test system: cultured nerve cells death induced by HNE; assay: Activity of inhibiting the HNE-induced nerve cell death (MTT assay); type: cell-based, Wistar rat; settings: 0.1 μM; HNE 25 μmol/L; cultured rat embryo cerebral cortex nerve cells; 24 hours
Source text: The protecting effect against the death of cultured nerve cells induced by HNE was examined by a modification of the method described in the Journal of Neuroscience, Vol. 17, Page 5089 (1997).
as §1, with “5×10^5” for “1×10^5”, “10% fetal calf serum” for “B27 additives (product of GIBCO BRL)”
In order to inhibit the proliferation of glia cells, cytosine arabinoside was added so as to give a final concentration of 10 μmol/L, from the day one after starting the culture. When the culture had been continued for 2 days, the medium was changed to a Dulbecco modified Eagle medium to which 10% fetal calf serum and 3.6 mg/mL glucose were added. When the culture had been continued for 7-8 days, a test agent was added, after which HNE was immediately added so as to give a final concentration of 25 μmol/L.
The inhibitory activity of an agent on the cultured nerve cell death was […] by using the inhibitory activity on the depression of MTT reducing ability as an index. That is, 24 hours after addition of a test agent, MTT assay [Journal of Immunological Methods, Vol. 65, Page 55 (1983)] developed by Mossmann was carried out, based on which inhibitory rate (%) of the agent on the decrease of MTT assay induced by HNE was calculated.
Inhibitory rate=[MTT assay value of (HNE+agent)−added group)−(MTT assay value of HNE−added group)]÷(MTT assay value of no addition group−MTT assay value of HNE−added group)]×100

[3] = test system: nerve cell death caused by Aβ; settings: Society for Neuroscience, Abstracts, Vol. 24, No. 1, Page 228 (1998); cited from earlier work
NGF = settings: WO96/12717; cited from earlier work

Row | Compound | melting point [°C] | response vs control in vivo at 100 mg/kg (ddY male mice) [%] | other results
1 | CCN(CC)CCOCCc1cccc2sccc12.O=C(O)C(=O)O | 79 to 82 |  | 
2 | CCN(CC)CCOCCc1ccc2ccccc2c1.O=C(O)C(=O)O | 67 to 72 |  | 
3 | CCN(CC)CCOCCc1ccc2sc(C)cc2c1.O=C(O)C(=O)O | 96 to 98 |  | 
4 | C#CCN(CC)CCOCCc1ccc2sccc2c1.Cl | 115 to 123 |  | 
5 | CCN(CC)CCOCCc1ccc2occc(=O)c2c1.Cl | 173 to 176 |  | 
6 | CN(C)CCOCCc1ccc2c(c1)OCO2.O=C(O)C(=O)O | 109 to 112 |  | 
7 | CN(C)CCOCCc1ccc2sccc2c1Cl.Cl | 92 to 95 |  | 
8 | CCN(CC)CCOCCc1cc2occc2cc1OC.Cl | 90 to 92 |  | 
9 | 2-[[2-(3-Benzo[b]thiophen-5-ylpropyl)-ethyl](methyl)amino]-1-ethanol oxalate [Example 119] |  |  | Inhibition rate on the decrease of MTT assay value induced by Aβ [1]: 39%
10 | CCN(CC)CCOCCc1ccc2sccc2c1.O=C(O)C(=O)O [Example 10] |  |  | Anti-hypoxic activity: (survival time of mouse in administered group)÷(survival time of mouse in control group)×100 (ddY male mice): 170%; Regeneration rate of sciatic nerve: (regeneration distance in administration group)÷(regeneration distance in control group)×100 (sciatic nerve): 117%; Inhibitory rate on the decrease of MTT assay induced by HNE [2]: 58%
11 | CCN(CC)CCOCCc1ccc2occc2c1 [Example 13, N-[2-(2-Benzo[b]furan-5-ylethoxy)ethyl]-N,N-diethylamine oxalate] |  | 160 | 
12 | CN(C)CCOCCc1ccc2sccc2c1.Cl [Example 16] |  |  | Anti-hypoxic activity: (survival time of mouse in administered group)÷(survival time of mouse in control group)×100 (ddY male mice): 158%; Regeneration rate of sciatic nerve: (regeneration distance in administration group)÷(regeneration distance in control group)×100 (sciatic nerve): 115%
13 | CN(CCOCCc1ccc2sccc2c1)Cc1ccccc1.O=C(O)C(=O)O [Example 20, N-[2-(2-benzo[b]thiophen-5-ylethoxy)ethyl]-N-benzyl-N-methylamine oxalate] |  | 155 | Inhibitory rate on the decrease of MTT assay induced by HNE [2]: 69%
14 | CCN(CC)CCOCCc1ccc2c(c1)OCO2 [Example 25, N-{2-[2-(1,3-benzodioxol-5-yl)ethoxy]ethyl}-N,N-diethylamine] | 83 to 84 |  | 
15 | CCN(CC)CCOCCc1ccc2sc(-c3ccccc3)cc2c1.Cl [Example 27, N,N-Diethyl-N-{2-[2-(2-phenylbenzo[b]-thiophen-5-yl)ethoxy]ethyl}-amine hydrochloride] | 131 to 138 |  | Regeneration rate of sciatic nerve: (regeneration distance in administration group)÷(regeneration distance in control group)×100 (sciatic nerve): 126%
16 | CCN(CC)CCOCCc1cc2ccsc2cc1F [Example 31, N,N-diethyl-N-{2-[2-(6-fluorobenzo[b]thiophen-5-yl)ethoxy]ethyl}amine oxalate] |  | 248 | 
17 | CCN(CC)CCOCCc1cccc2ccccc12 [Example 49, N,N-diethyl-N-{2-[2-(1-naphthyl)ethoxy]ethyl}-amine oxalate] |  | 173 | 
18 | COc1cc2sccc2cc1CCOCCN(C)C [Example 53, N,N-Dimethyl-N-{2-[2-(6-methoxybenzo[b]thiophen-5-yl)ethoxy]ethyl}-amine hydrochloride] |  | 200 | 
19 | CN(CCO)CCOCCc1ccc2sccc2c1.O=C(O)C(=O)O [Example 68, 2-{[2-(2-Benzo[b]thiophen-5-ylethoxy)ethyl]-(methyl)amino}-1-ethanol oxalate] |  | 202 | Inhibition rate on the decrease of MTT assay value induced by Aβ [1]: 28%; Inhibitory rate on the decrease of MTT assay induced by HNE [2]: 57%
20 | C#CCN(C)CCOCCc1ccc2sccc2c1.Cl [Example 70, N-[2-(2-benzo[b]thiophen-5-ylethoxy)ethyl]-N-methyl-N-(2-pripynyl)amine hydrochloride] |  |  | Anti-hypoxic activity: (survival time of mouse in administered group)÷(survival time of mouse in control group)×100 (ddY male mice): 213%
21 | CN(CCO)CCCOCCc1ccc2sccc2c1.O=C(O)C(=O)O [Example 76, 2-{[3-(2-benzo[b]thiophen-5-ylethoxy)propyl]-(methyl)amino}-1-ethanol oxalate] |  | 194 | Inhibitory rate on the decrease of MTT assay induced by HNE [2]: 49%
22 | CCN(CC)CCOCCc1ccc2ccsc2c1 [Example 101, N-[2-(2-Benzo[b]thiophen-6-ylethoxy)ethyl]-N,N-diethylamine oxalate] |  | 187 | 
23 | CCN(C)CCOCCc1ccc2sccc2c1 [Example 102, N-[2-(2-Benzo[b]thiophen-5-ylethoxy)ethyl]-N-ethyl-N-methylamine oxalate] |  | 210 | 
24 | CCN(CC)CCOCCc1ccc2c(c1)CCC2.Cl [Example 105, N-{2-[2-(2,3-Dihydro-1H-inden-5-yl)ethoxy]ethyl}-N,N-diethylamine hydrochloride] | 104 to 105 |  | Inhibitory rate on the decrease of MTT assay induced by HNE [2]: 31%
25 | CN(CCO)CCOCCc1c(F)cc2ccsc2c1F.Cl [Example 137, 2-[{2-[2-(5,7-Difluorobenzo[b]thiophen-6-yl)ethoxy]ethyl}(methyl)amino]-1-ethanol hydrochloride] | 95.5 to 97.5 |  | Inhibition rate on the decrease of MTT assay value induced by Aβ [1]: 37%
26 | CC(O)CN(C)CCOCCc1ccc2sccc2c1 (stereo not drawn) [Example 144, 1-{[2-(2-Benzo[b]thiophen-5-ylethoxy)ethyl]-(methyl)amino}-2-propanol oxalate] |  | 250 | 
27 | CN(CCOCCc1ccc2sccc2c1)C1CC1 [Example 158, N-[2-(2-benzo[b]thiophen-5-ylethoxy)ethyl]-N-cyclopropyl-N-methylamine hydrochloride] |  | 179 | 
28 | CCN(CC)CCOC[C@H](O)c1ccc2sccc2c1.Cl [Example T-588, (R)-1-(benzo[b]thiophen-5-yl)-2-[2-(N,N-diethylamino)ethoxy]ethanol hydrochloride] |  |  | Protective action on the nerve cell death caused by Aβ [3]: protective action; Activity of reinforcing the function of NGF (NGF): activity of reinforcing the function of NGF
